Patent US10676514B2, “CDCA1-derived peptide and vaccine containing same” (ONCOTHERAPY SCIENCE, INC., priority 2014, dated 2020)
Entries after “also recorded” stand apart in the source; their conditions may differ.

Key:
[1] = tested on: peptide-pulsed C1R-A11 cells; assay: IFN-gamma ELISPOT assay of peptide-induced CTLs (HLA-A*1101); type: cell-based, human; conditions: CTLs induced from HLA-A*1101-positive donors, peptide-pulsed C1R-A11 vs control
Excerpt: Monocyte-derived dendritic cells (DCs) were used as the antigen-presenting cell to induce a cytotoxic T lymphocyte (CTL) response against peptides presented on human leukocyte antigens (HLAs). As described in the other sections, DCs were generated in vitro (Nakahara S et al., Cancer Res 2003, 63(14): 4112-8). Specifically, peripheral-blood mononuclear cells isolated from healthy volunteers (HLA-A*1101-positive) with the Ficoll-Paque plus solution (Pharmacia) were separated by attaching to plastic tissue culture dishes (Becton Dickinson) and concentrated as a monocyte fraction. The monocyte-concentrated population was cultured in the presence of 1000 IU/ml granulocyte macrophage colony-stimulating factor (R&D System) and 1000 IU/ml interleukin(IL)-4 (R&D System) in an AIM-V medium (Invitrogen) containing 2% heat-inactivated autologous serum (AS). After seven days of culturing, the cytokine-induced DCs were pulsed with 20 micro-g/ml each of the synthesized peptides in an AIM-V medium at 37 degrees C. for three hours in the presence of 3 micro-g/ml beta 2-microglobulin. The generated cells appeared to express on their cell surface DC-associated molecules such as CD80, CD83, CD86 and HLA class II (data not shown). Next, these peptide-pulsed DCs were inactivated by X-ray irradiation (20 Gy), and mixed in a 1:20 ratio with autologous CD8^+ T cells obtained by positive selection using the CD8 Positive Isolation Kit (Dynal). These culture products were seeded in a 48-well plate (Corning). Each well was made to contain 1.5×10^4 peptide-pulsed DCs, 3×10^5 CD8^+ T cells and 10 ng/ml IL-7 (R&D System) in 0.5 ml of the AIM-V/2% AS medium. Three days later, these culture products were added with a final concentration of 20 IU/ml IL-2 (CHIRON). On day 7 and day 14, T cells were further stimulated with peptide-pulsed autologous DCs. The DCs were prepared every time by the same method as above. On day 21, after the third peptide stimulation, CTLs were examined against the peptide-pulsed C1R-A11 cells by a human interferon (IFN)-gamma enzyme-linked immunospot (ELISPOT) assay (Tanaka H et al., Br J Cancer 2001, 84(1): 94-9; Umano Y et al., Br J Cancer 2001, 84(8): 1052-7; Uchida N et al., Clin Cancer Res 2004, 10(24): 8577-86; Suda T et al., Cancer Sci 2006, 97(5): 411-9; Watanabe T et al., Cancer Sci 2005, 96(8): 498-506).
(§1) Specifically, peptide-pulsed C1R-A11 (1×10^4 cells/well) was prepared as the stimulator cell. The induced CTLs, i.e., CTL lines and CTL clones, were used as the responder cell. The IFN-gamma ELISPOT assay and IFN-gamma ELISA were performed according to the manufacturer's manual.

peptide-pulsed C1R-A11 = assay: IFN-gamma ELISA of CTL lines and CTL clones (HLA-A*1101); type: cell-based, human; conditions: for IFN-gamma production of CTL lines: peptide-pulsed vs non-pulsed target cells, HLA-A*1101
Description: CTLs were propagated in culture using methods similar to those disclosed by Riddell et al. (Walter E A et al., N Engl J Med 1995, 333(16): 1038-44; Riddell S R et al., Nat Med 1996, 2(2): 216-23). The CTLs were co-cultured in a total of 25 ml AIM-V medium containing 5% AS (AIM-V/5% AS) and 40 ng/ml anti-CD3 antibody with two types of Mitomycin C-treated human B lymphoblastoid cell lines at 5×10^6 cells/flask. One day after beginning of the culturing, 120 IU/ml IL-2 was added to the culture. On days 5, 8 and 11, a fresh AIM-V/5% AS medium containing 30 IU/ml IL-2 was added to the culture (Tanaka H et al., Br J Cancer 2001, 84(1): 94-9; Umano Y et al., Br J Cancer 2001, 84(8): 1052-7; Uchida N et al., Clin Cancer Res 2004, 10(24): 8577-86; Suda T et al., Cancer Sci 2006, 97(5): 411-9; Watanabe T et al., Cancer Sci 2005, 96(8): 498-506).
Dilution of CTLs was carried out to make 0.3, 1 and 3 cells/well in 96 round-bottomed microtiter plates (Nalge Nunc International). The CTLs were co-cultured with two types of Mitomycin C-treated human B lymphoblastoid cell lines at 1×10^4 cells/well in a total of 150 micro-l/well AIM-V/5% AS medium with 30 ng/ml anti-CD3 antibody and 125 IU/ml IL-2. Ten days later, IL-2 was added to the medium at 50 micro-l/well to reach a final concentration of 125 IU/ml. On day 14, the CTL activity was tested, and the CTL clones were propagated using the same method as described above (Uchida N et al., Clin Cancer Res 2004, 10(24): 8577-86; Suda T et al., Cancer Sci 2006, 97(5): 411-9; Watanabe T et al., Cancer Sci 2005, 96(8): 498-506).
as §1

## KSNISEKTK (a peptide derived from CDCA1) [SEQ ID NO: 17]
[1]; listed as CDCA1-A11-9-213
  peptide-specific CTL activity (IFN-gamma production): potent IFN-gamma production; also recorded: significant specific CTL activity

## IVLQEGNSQK (a peptide derived from CDCA1) [SEQ ID NO: 40]
[1]; listed as CDCA1-A11-10-203
  peptide-specific CTL activity (IFN-gamma production): potent IFN-gamma production; also recorded: significant specific CTL activity

## TAELKRKMFK (a peptide derived from CDCA1) [SEQ ID NO: 35]
[1]; listed as CDCA1-A11-10-452
  peptide-specific CTL activity (IFN-gamma production): potent IFN-gamma production; also recorded: significant specific CTL activity

## NAAHQEALMK (a peptide derived from CDCA1) [SEQ ID NO: 45]
[1]; listed as CDCA1-A1-10-156
  peptide-specific CTL activity (IFN-gamma production): significant specific CTL activity
[1]; listed as CDCA1-A11-10-156
  peptide-specific CTL activity (IFN-gamma production): potent IFN-gamma production

## GADGKNLTK (a peptide derived from CDCA1) [SEQ ID NO: 21]
peptide-pulsed C1R-A11
  IFN-gamma production of CTL lines: potent IFN-gamma production
[1]; listed as CDCA1-A11-9-25
  peptide-specific CTL activity (IFN-gamma production): potent IFN-gamma production; also recorded: significant specific CTL activity

## CQLEVQLYQK (a peptide derived from CDCA1) [SEQ ID NO: 39]
[1]; listed as CDCA1-A11-10-289
  peptide-specific CTL activity (IFN-gamma production): potent IFN-gamma production; also recorded: significant specific CTL activity
[1]; listed as CDCA1A11-10-289
  peptide-specific CTL activity (IFN-gamma production): potent IFN-gamma production

## KTEENSFKR (a peptide derived from CDCA1) [SEQ ID NO: 19]
[1]; listed as CDCA1-A1-9-335
  peptide-specific CTL activity (IFN-gamma production): potent IFN-gamma production
[1]; listed as CDCA1-A11-9-335
  peptide-specific CTL activity (IFN-gamma production): potent IFN-gamma production; also recorded: significant specific CTL activity

## NSFKRLMIVK (a peptide derived from CDCA1) [SEQ ID NO: 30]
peptide-pulsed C1R-A11
  IFN-gamma production of CTL lines: potent IFN-gamma production
[1]; listed as CDCA1-A11-10-339
  peptide-specific CTL activity (IFN-gamma production): potent IFN-gamma production; also recorded: significant specific CTL activity

## KINKKHEDVK (a peptide derived from CDCA1) [SEQ ID NO: 58]
peptide-pulsed C1R-A11
  IFN-gamma production of CTL lines: potent IFN-gamma production
[1]; listed as CDCA1-A1-10-358
  peptide-specific CTL activity (IFN-gamma production): potent IFN-gamma production
[1]; listed as CDCA1-A11-10-358
  peptide-specific CTL activity (IFN-gamma production): significant specific CTL activity
[1]; listed as CDCA1A11-10-358
  peptide-specific CTL activity (IFN-gamma production): potent IFN-gamma production

## SFKRLMIVKK (a peptide derived from CDCA1) [SEQ ID NO: 53]
[1]; listed as CDCA1-A11-10-340
  peptide-specific CTL activity (IFN-gamma production): potent IFN-gamma production; also recorded: significant specific CTL activity

## IVDSPEKLK (a peptide derived from CDCA1) [SEQ ID NO: 14]
[1]; listed as CDCA1-A11-9-244
  peptide-specific CTL activity (IFN-gamma production): potent IFN-gamma production; also recorded: significant specific CTL activity

## KAAEDSYAK (a peptide derived from CDCA1) [SEQ ID NO: 9]
peptide-pulsed C1R-A11
  IFN-gamma production of CTL lines: potent IFN-gamma production
[1]; listed as CDCA1-A11-9-439
  peptide-specific CTL activity (IFN-gamma production): potent IFN-gamma production; also recorded: significant specific CTL activity

## SQEIFLNLK (a peptide derived from CDCA1) [SEQ ID NO: 6]
peptide-pulsed C1R-A11; CTL clones by limiting dilution, peptide-pulsed C1R-A11, listed as CDCA1-A11-9-419
  IFN-gamma production of CTL clones: Potent IFN-gamma production
peptide-pulsed C1R-A11
  IFN-gamma production of CTL lines: potent IFN-gamma production
[1]; listed as CDCA1-A11-9-419
  peptide-specific CTL activity (IFN-gamma production): potent IFN-gamma production; also recorded: significant specific CTL activity

## VTTINQEIQK (a peptide derived from CDCA1) [SEQ ID NO: 33]
[1]; listed as CDCA1-A1-10-391
  peptide-specific CTL activity (IFN-gamma production): no specific IFN-gamma production
[1]; listed as CDCA1-A11-10-391
  peptide-specific CTL activity (IFN-gamma production): specific IFN-gamma production was not observed

## KILTGADGK (a peptide derived from CDCA1) [SEQ ID NO: 12]
[1]; listed as CDCA1-A1-9-21
  peptide-specific CTL activity (IFN-gamma production): potent IFN-gamma production
[1]; listed as CDCA1-A11-9-21
  peptide-specific CTL activity (IFN-gamma production): potent IFN-gamma production; also recorded: significant specific CTL activity

## TADILCPKAK (a peptide derived from CDCA1) [SEQ ID NO: 56]
[1]; listed as CDCA1-A1-10-106
  peptide-specific CTL activity (IFN-gamma production): significant specific CTL activity
[1]; listed as CDCA1-A11-10-106
  peptide-specific CTL activity (IFN-gamma production): potent IFN-gamma production
